Here are results for two molecules from US20240293361A1, “Use of Statins to Treat or Prevent Drug-Induced Hearing Loss” (The United States of America, as represented by the …, priority 2020, published 2024).

“And” between values parts separate entries of the source, which are not always exact repeats. Equal entries are not always repeated. “Also recorded” adds a separate entry of the source.

The subject of one data set is patients with HNSCC. The data set is described as follows: 3-year overall and disease-free survival (Kaplan-Meier, log-rank). The format is in vivo, human. As to conditions: URMC data n=175; log-rank (Mantel-Cox). The method, then: Overall survival and disease-free survival were calculated as Kaplan-Meier curves using Prism v8 software on all available data from URMC at up to 3 years post treatment (N=175). Survival curves were compared using the log-rank (Mantel-Cox) test. Cochlear radiation dose data presented in FIG. 6 were analyzed using Pearson R and Spearman R correlation analysis within Prism v8.
Overall survival at 3 years was approximately 80% (FIG. 4). An exact median survival time could not be calculated due to the number of patients censored/lost to follow-up.

Data set [1] concerns cisplatin-induced hearing loss in patients with head and neck cancer. Kind of data set: Clinical hearing status (PTA of 1, 2 and 4 kHz) at follow-up after cisplatin therapy. In kind it is in vivo, human. As to conditions: post-cisplatin therapy.
Data set [2] shares this test system. From the text:
(§1) The primary outcome measure was the difference in incidence of a change in hearing between the baseline hearing test and the post-treatment hearing test, per ear, as defined by established ototoxicity grading scales. These scales report subjects who transition from normal hearing to hearing loss as well as those who transition from some hearing loss to more hearing loss. The criteria of two different grading scales was applied to the dataset (Table 4). The NCI CTCAEv5.0(34) classifies adverse changes in hearing based on auditory threshold shifts across a 1-8 KHz frequency range. TUNE ototoxicity grading criteria (Theunissen et al., 2014), which incorporate extended high frequency (EHF) data was also applied (see Table 5, FIG. 5).
Changes in hearing were primarily defined using CTCAEv5.0 criteria (Theunissen et al., 2014). However, cisplatin-induced ototoxicity is characterized initially as a high frequency (above 8 kHz) hearing loss that can spread to include lower frequencies (Brock et al., 1991). Therefore, the TUNE grading scale (Theunissen et al., 2014) was applied, which reports incidence and severity of hearing loss based on shifts in auditory thresholds across two frequency ranges: 1-4 kHz and 8-12.5 kHz (Table 4). The higher-frequency range of the TUNE scale was modified to include 6, 8 and 12.5 kHz due to insufficient data at 10 kHz in the dataset. Because many of the subjects had some hearing loss at baseline, the TUNE criteria was further modified so that Grades 3 and 4 utilized threshold shift data instead of absolute thresholds. A TUNE Grade 3 was redefined for this study as a ≥35 dB PTA threshold shift from the baseline to the post-treatment audiogram, and similarly Grade 4 was redefined as a ≥50 dB PTA threshold shift.
(§2) Changes in hearing, defined by TUNE criteria, were analyzed using categorical incidence (per ear) data. The incidence and severity distribution of a clinically meaningful hearing change, per ear, relative to statin use was analyzed using chi-square analyses (SAS PROC FREQ procedure). […] A logistic regression analysis (SAS PROC LOGISTIC procedure) with calculation of odds ratios and 95% confidence intervals was performed to identify associations between TUNE-defined changes in hearing and statin use after adjustment for significant covariates.

The test system is the same in data set [3].
Description: as §1
as §2, with “The primary outcome measure was based on changes” for “Changes”, “hearing as” for “hearing,”, “CTCAEv5.0 scale criteria (see Table 4) and” for “TUNE criteria,”, “CTCAE-defined” for “TUNE-defined”
This is another data set of the same source.

The subject of data set [4] is spiral ganglion neurons (SGN). As to conditions: mouse model of noise-induced hearing loss; cited from earlier work.
Data set [5] relates to patients treated with atorvastatin. As to conditions: cited from earlier work.
The subject of data set [6] is cisplatin-induced hearing loss in mice. As to conditions: cyclic administration of cisplatin; ABR testing; cited from earlier work.
In data set [7] the test system is heme oxygenase-1 (Hmox-1). As to conditions: mice; cited from earlier work.
For data set [8] the following is noted: Schachter et al., 2005; cited from earlier work.
The mark [9] stands for this setting: controlled for cumulative cisplatin dose and baseline hearing.
Where [10] appears, read: package insert, rate greater than placebo.

Turning to `CC(C)c1c(C(=O)Nc2ccccc2)c(-c2ccccc2)c(-c2ccc(F)cc2)n1CC[C@@H](O)C[C@@H](O)CC(=O)O` [atorvastatin], in the data set with patients with HNSCC, the “3-year disease-free survival compared with non-statin users” value was “no significant differences” and the “3-year overall survival compared with non-statin users” value is “did not have a significant effect on patient survival; also recorded: no significant differences”. In data set [1], the “hearing status at follow-up: Mild (PTA >20, <40), number of ears” value is 49 No. Ears; the “hearing status at follow-up: Mild (PTA >20, <40), percent of ears” value is “(50.52) %”; the “hearing status at follow-up: Moderate (PTA ≥40, ≤70), number of ears” value was found to be 21 No. Ears; the “hearing status at follow-up: Moderate (PTA ≥40, ≤70), percent of ears” value is “(21.65) %”. In data set [1], the “hearing status at follow-up: Normal (PTA ≤20), number of ears” value is 26 No. Ears; the “hearing status at follow-up: Normal (PTA ≤20), percent of ears” value was “(26.80) %”; the “hearing status at follow-up: Profound (PTA ≥95), number of ears” value is recorded as 3 No. Ears; the “hearing status at follow-up: Profound (PTA ≥95), percent of ears” value is given as “(3.00) %”. Further, in data set [1], the “hearing status at follow-up: Severe (PTA >70, <95), number of ears” value is on record as 1 No. Ears and the “hearing status at follow-up: Severe (PTA >70, <95), percent of ears” value is reported as “(1.03) %”. Also, the “less likely to acquire a TUNE-defined cisplatin-induced hearing loss than a non-statin user” value in [2] (setting [9]) came to 56%. In addition, the “incidence of TUNE grade 2 or higher change in hearing” value in data set [2] (in vivo) was found to be 14.4%. For the same molecule, the “incidence of TUNE Grade 1 or higher hearing loss” value in [2] (percent of ears) was 34%. The “hearing loss, CTCAEv5.0 Grade ≥2 criteria, retrospective data used for power analysis” value in data set [3] (atorvastatin (20 mg) group as worded) is approximately 16.7%. The “less likely to acquire a CTCAE-defined cisplatin-induced hearing loss than a non-statin user” value in [3] (setting [9]) came out at 53%. The “less likely to develop a cisplatin-related hearing loss, once daily atorvastatin vs not on atorvastatin” value in data set [3] (observational data) stood at 45%. The “OR for cisplatin-related hearing loss, once daily atorvastatin vs not on atorvastatin” value in data set [3] (observational data, 95% CI: 0.327-0.942) turned out to be 0.55. Further, in data set [3] (per patient, in at least one ear), the “incidence of a CTCAEv5.0-grade hearing loss, patients” value is 46%. The “incidence of CTCAE grade ≥2 hearing change” value in data set [3] (percentage of ears) is listed as 9.7%. Also, in [3] (percentage of ears, full cohort), the “incidence of CTCAE Grade 1 or higher hearing loss” value is 31.2% and 31%. In data set [3] (subgroup, % of ears), the “incidence of CTCAE-defined hearing loss, chemoradiation therapy” value is reported as 31.2%; the “incidence of CTCAE-defined hearing loss, higher cumulative cisplatin doses (>200 mg/m^2)” value is listed as 31.7%; the “incidence of CTCAE-defined hearing loss, males” value was 30.4%; the “incidence of CTCAE-defined hearing loss, mild hearing loss at baseline” value is 26.8%. For the same molecule, in data set [4], the “elongation of SGN processes” value is “promoted the elongation of SGN processes”. Also, in [5] (20 mg once daily, adults, literature, listed as Atorvastatin), the “safety and tolerability of the 20 mg dose” value is “very low incidence of adverse effects”. Besides, the “Food and Drug Administration pregnancy classification” value in data set [5] (human, in vivo) was “Category X”. Besides, in [5] (setting [10]), the “alanine aminotransferase increase leading to treatment discontinuation” value is 0.4%, the “diarrhea leading to treatment discontinuation” value is reported as 0.5%, the “hepatic enzyme increase leading to treatment discontinuation” value is 0.4% and the “myalgia leading to treatment discontinuation” value is listed as 0.7%. In addition, the “nausea leading to treatment discontinuation” value in data set [5] (setting [10]) is 0.4%.

Turning to `CC[C@H](C)C(=O)O[C@H]1C[C@@H](C)C=C2C=C[C@H](C)[C@H](CC[C@@H]3C[C@@H](O)CC(=O)O3)[C@H]21` [lovastatin], in [1], the “hearing status at follow-up: Mild (PTA >20, <40), number of ears” value amounted to 4 No. Ears; the “hearing status at follow-up: Mild (PTA >20, <40), percent of ears” value is recorded as “(100.00) %”; the “hearing status at follow-up: Moderate (PTA ≥40, ≤70), number of ears” value stood at 0 No. Ears; the “hearing status at follow-up: Normal (PTA ≤20), number of ears” value was 0 No. Ears. Also, in data set [1], the “hearing status at follow-up: Profound (PTA ≥95), number of ears” value is recorded as 0 No. Ears and the “hearing status at follow-up: Severe (PTA >70, <95), number of ears” value is recorded as 0 No. Ears. In data set [6], the “effect on cisplatin-induced hearing loss / ototoxicity in mice” value is reported as “reduces cisplatin-induced hearing loss; also recorded: reduced cisplatin ototoxicity”. For the same molecule, the “Hmox-1 mRNA” value in data set [7] is “induced Hmox-1 mRNA”. Moreover, in [4], the “elongation of SGN processes” value is given as “promoted the elongation of SGN processes”. Also, in data set [8], the lipophilicity result is on record as “relatively lipophilic”.
